Data from PubChem BioAssay AID256 (DTP/NCI, 2004).
“And” between values parts separate entries of the source, which are not always exact repeats. Equal entries are not always repeated. Toxic doses and inconclusive results are not listed. Rule for the calls: active = survival T/C of 150% or more; inactive = T/C below 125% in these data.

Tested on: CD2F1 mice, L1210 leukemia ip, survival T/C
Test: NCI In Vivo Anticancer Drug Screen. Data for tumor model L1210 Leukemia (intraperitoneal) in CD2F1 (CDF1) mice
Settings: higher = longer survival
How it was run: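 Implant tumor; dose compound or vehicle; measure endpoint in both groups; report treated divided by control.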

Measured: T/C

C/C(=N\NC(=S)N1CC2CCC(CC2)C1)c1nccs1
inactive: endpoint: median survival time, dose: 3.13 mg/kg/injection, schedule: Q01DX009 (ip), vehicle: saline with Tween-80 103 % of control | endpoint: median survival time, dose: 6.25 mg/kg/injection, schedule: Q01DX009 (ip), vehicle: saline with Tween-80 112 % of control | endpoint: median survival time, dose: 12.5 mg/kg/injection, schedule: Q01DX009 (ip), vehicle: saline with Tween-80 113 % of control and 114 % of control and 110 % of control | endpoint: median survival time, dose: 25.0 mg/kg/injection, schedule: Q01DX009 (ip), vehicle: saline with Tween-80 115 % of control and 104 % of control | endpoint: median survival time, dose: 50.0 mg/kg/injection, schedule: Q01DX009 (ip), vehicle: saline with Tween-80 120 % of control and 95 % of control and 98 % of control

O=C1NC(=O)C2(CCN(Cc3ccccc3)CC2)N1
inactive: endpoint: mean survival time, dose: 100.0 mg/kg/injection, schedule: Q01DX001 (ip), vehicle: saline with Tween-80 104 % of control | endpoint: mean survival time, dose: 200.0 mg/kg/injection, schedule: Q01DX001 (ip), vehicle: saline with Tween-80 101 % of control | endpoint: mean survival time, dose: 400.0 mg/kg/injection, schedule: Q01DX001 (ip), vehicle: saline with Tween-80 101 % of control

CCN(CC)C(=S)SC/C=C\CC(Cl)(Cl)Cl
inactive: endpoint: mean survival time, dose: 75.0 mg/kg/injection, schedule: Q04DX003 (ip), vehicle: saline 97 % of control | endpoint: mean survival time, dose: 150.0 mg/kg/injection, schedule: Q04DX003 (ip), vehicle: saline 101 % of control | endpoint: mean survival time, dose: 300.0 mg/kg/injection, schedule: Q04DX003 (ip), vehicle: saline 109 % of control

CCCCS(=O)(=O)OCCCCOS(=O)(=O)CCCC
inactive: endpoint: mean survival time, dose: 100.0 mg/kg/injection, schedule: Q04DX003 (ip), vehicle: saline 96 % of control | endpoint: mean survival time, dose: 200.0 mg/kg/injection, schedule: Q04DX003 (ip), vehicle: saline 95 % of control | endpoint: mean survival time, dose: 400.0 mg/kg/injection, schedule: Q04DX003 (ip), vehicle: saline 101 % of control

COc1cc(Br)c(CC2c3cc(OC)c(OC)cc3CCN2C)cc1OC (configuration not stated)
inactive: endpoint: mean survival time, dose: 100.0 mg/kg/injection, schedule: Q01DX001 (ip), vehicle: saline 101 % of control | endpoint: mean survival time, dose: 200.0 mg/kg/injection, schedule: Q01DX001 (ip), vehicle: saline 101 % of control

O=C1C=C[C@H](O)[C@@]2(CO)O[C@@H]12
inactive: endpoint: median survival time, dose: 0.31 mg/kg/injection, schedule: Q01DX009 (ip), vehicle: saline with Tween-80 102 % of control | endpoint: median survival time, dose: 0.62 mg/kg/injection, schedule: Q01DX009 (ip), vehicle: saline with Tween-80 101 % of control | endpoint: median survival time, dose: 1.25 mg/kg/injection, schedule: Q01DX009 (ip), vehicle: saline with Tween-80 118 % of control and 110 % of control | endpoint: median survival time, dose: 2.5 mg/kg/injection, schedule: Q01DX009 (ip), vehicle: saline with Tween-80 121 % of control and 123 % of control | endpoint: median survival time, dose: 5.0 mg/kg/injection, schedule: Q01DX009 (ip), vehicle: saline with Tween-80 114 % of control | endpoint: median survival time, dose: 10.0 mg/kg/injection, schedule: Q01DX009 (ip), vehicle: saline with Tween-80 118 % of control
